For one data set, the system named is peripheral nerves. The note with it: stated as known; not the applicant's own test; cited from earlier work.
Data set [1] concerns neurites growing from nerve cells (rat DRG cells). Briefly: assessment by medicinal agent effect prediction system: microscope image of neurites cultured in the microfluidic device, applied to learned model M1. The conditions noted are these: image of FIG. 10 applied to learned model M1; result shown in FIG. 11. Format: cell-based. The source says: FIG. 7A to FIG. 7D are observation images obtained by culturing nerve cells 41 in the microfluidic devices 30 using culture solutions respectively containing different known substances and observing, with a microscope, neurites 42 located in the second culture spaces 37. It should be noted that rat DRG cells are herein used as nerve cells 41, but various cells such as mouse DRG cells, human ES cells, or human iPS cells can be used.
Then, neurites 42 growing from the nerve cells 41 and located in the second culture space 37 were observed by the microscope 50 to obtain an observation image.
Image data based on the observation image was input as input data for assessment i42t to the system 10 through the data input receiving unit 11. In the system 10, the assessment unit 15 applied the input data for assessment i42t to the learned model M1. That is, features based on the input data for assessment i42t were applied to the input layer of the learned model M1. As a result, the result of assessment shown in FIG. 11 was output from the display output unit 17.
The percentage of correct answers is further improved by increasing the number of samples of teaching data and the number of times of learning.

On to `CC[C@]1(O)C[C@H]2CN(CCc3c([nH]c4ccccc34)[C@@](C(=O)OC)(c3cc4c(cc3OC)N(C=O)[C@H]3[C@@](O)(C(=O)OC)[C@H](OC(C)=O)[C@]5(CC)C=CCN6CC[C@]43[C@@H]65)C2)C1` [Vincristine], for which the “impairment of peripheral nerves the substance is known to cause” value (“impairment” below) with peripheral nerves is recorded as “axonopathy”.

Turning to `CC(=O)O[C@H]1C(=O)[C@@]2(C)[C@H]([C@H](OC(=O)c3ccccc3)[C@]3(O)C[C@H](OC(=O)[C@H](O)[C@@H](NC(=O)c4ccccc4)c4ccccc4)C(C)=C1C3(C)C)[C@]1(OC(C)=O)CO[C@@H]1C[C@@H]2O` [Paclitaxel], the “result of assessment (impaired nerve site predicted by the system)” value in data set [1] is given as “high possibility of causing axonopathy”.

Turning to `O=C1[O][Pt]2([NH][C@@H]3CCCC[C@H]3[NH]2)[O]C1=O` [Oxaliplatin], the “impairment” value in the data set on peripheral nerves is given as “neuronopathy”.

Regarding `OC[C@H]1O[C@@](CO)(O[C@H]2O[C@H](CO)[C@@H](O)[C@H](O)[C@H]2O)[C@@H](O)[C@@H]1O` [Sucrose], in the data set with peripheral nerves, the “impairment” value is reported as “not to be toxic to peripheral nerves”.

Source of the values: patent US20240287429A1, “MEDICINAL AGENT EFFECT PREDICTION SYSTEM” (Tohoku Institute of Technology, priority 2021, published 2024).
